Several values for one entry are separate records, joined by “and”; a condition that tells them apart may be missing. Identical values can stand only once. Like-named read-outs stand apart in the source and are kept apart here.

In assay [1] the target is T1, α-Glucosidase from Saccharomyces cerevisiae (Saccharomyces cerevisiae, UniProt P53341).
T1 construct: purchased Sigma-Aldrich G003
Briefly: α-Glucosidase inhibition (pNPG colorimetric). Format: biochemical. As to the method: α-Glucosidase from Saccharomyces cerevisiae (Sigma-Aldrich, St. Louis, MO, USA cat#G003) was used in this assay. Solutions of the different compounds were prepared in 1000 µM final concentrations in dimethyl sulfoxide (DMSO). Compounds that exceeded 50% inhibition at this concentration were serially diluted to determine their half-maximal inhibitory concentration (IC50).
Briefly, 25 μL of samples/blank were incubated for 10 min at 37 °C with 50 μL of α-glucosidase (0.6 U/mL) in phosphate buffer (0.1 M, pH 7) in 96-microwell plates. The mixture was then incubated at 37 °C for 5 min with 25 μL of 3 mM pNPG in phosphate buffer (pH 7). A microplate reader (TECAN, Männedorf, Switzerland) was used to measure p-nitrophenol release from pNPG substrate at 405 nm to determine enzyme activity. Then, % α-glucosidase inhibition was estimated.

Assay [2] concerns advanced glycation end products (AGEs) formation, arginine-methylglyoxal model. Briefly: AGEs formation inhibition, arginine-methylglyoxal assay. It counts as biochemical. To be noted: AGEs fluorescence, 72 h, 37 °C; read-out: Arginine-Methylglyoxal Model IC50 (Mean ± SE). Here is the method:
(§1) The isolated compounds were prepared at final concentrations of 500 µM in DMSO in the BSA-fructose assay, and 1000 µM in all other AGEs assays. Compounds that exceeded 50% inhibition at this concentration were serially diluted to determine their IC50. All tests were conducted using quercetin (positive control).
The determination of the inhibitory effect of the isolated compounds on the formation of AGEs in the arginine methylglyoxal model was used as described previously with slight modification. Briefly, in black 96-microwell plates, a sample was incubated for 72 h at 37 °C in the dark with methylglyoxal (53.3 mM, in distilled water) and 106.6 mM arginine (in 200 mM phosphate buffer, pH 7.4, with 0.02% sodium azide), (1:1:1 v/v/v). On a microplate reader (Fluostar Omega/BMG Labtech/Germany), fluorescent AGEs were detected using excitation and emission wavelengths of 355 nm and 460 nm, respectively. Triplicates of all experiments were performed.

For assay [3], the system named is advanced glycation end products (AGEs) formation, BSA-methylglyoxal model. In words: AGEs formation inhibition, BSA-methylglyoxal assay. Format: biochemical. To be noted: AGEs fluorescence, 72 h, 37 °C; read-out: BSA-Methylglyoxal Model IC50 (Mean ± SE). As to the method:
as §1
AGEs inhibitory activity of the isolated compounds was determined according to the reported procedures with slight modification. Briefly, in black 96-microwell plates, samples were incubated for 72 h at 37 °C in the dark with bovine serum albumin (BSA, 50 mg/mL) (in 200 mM phosphate buffer, pH 7.4, with 0.02% sodium azide) and methyl-glyoxal (53.3 mM, in distilled water), (1:1:1 v/v/v). On a microplate reader (Fluostar Omega/BMG Labtech/Germany), fluorescent AGEs were detected using excitation and emission wavelengths of 355 nm and 460 nm, respectively. Triplicates of all experiments were performed.

The nature of assay [4]: DPPH assay. To be noted: read-out: DPPH assay IC50 (Mean ± SE). Here is the method:
Isolated compounds were prepared in final concentrations of 1000 µM in DMSO. Compounds that exceeded 50% inhibition at this concentration were serially diluted to determine their IC50. Ascorbic acid was used as a positive control, prepared in a concentration of 100 µM in water from which six concentrations were prepared to calculate its IC50. The method is based on the reduction of free radical of 2,2-diphenyl-1-picrylhydrazyl (DPPH). Briefly, in a 96-well plate, 20 μL of the isolated compound was incubated for 20 min in the absence of light with 180 μL of DPPH reagent (100 μM). The reduction of intensity in the color of DPPH was assessed on a microplate reader (TECAN, Männedorf, Switzerland) at 540 nm (Supplementary Table S2).
For orientation: The DPPH test is a chemical assay of radical scavenging.

Assay [5] can be described thus: Ferric reducing antioxidant power (FRAP) assay. To be noted: ascorbic acid equivalents; mean ± SD, n = 3. As to the method: Isolated compounds were dissolved in DMSO to prepare a 0.5 mg/mL concentration, meanwhile, the positive control (ascorbic acid) was used to prepare a stock solution of 1000 µM in water; from which seven concentrations were prepared including 15.625, 31.25, 62.5, 125, 250 and 500 µM to construct the dose-response curve. The method of the assay depends on the reduction of Fe^3+ to Fe^2+, which is chelated by 2,4,6-tris(2-pyridyl)-s-triazine (TPTZ) to form Fe^2+-TPTZ complex which is known as FRAP (ferric reducing antioxidant power). Briefly, 190 μL of FRAP reagent (300 mM sodium acetate buffer pH 3.6, 10 mM TPTZ, and 20 mM ferric chloride, (10:1:1)) was incubated in the dark with 10 μL of the isolated compound in a 96-well plate for 30 min at 37 °C and absorbance was determined at 620 nm using microplate reader (Tecan, San Jose, CA, USA). Data are represented as means (n = 3) ± SD and the antioxidant effect of the extract was calculated as µM Ascorbic acid equivalents by substitution in the linear regression equation (Supplementary Figure S3).

The mark [6] stands for this setting: Saccharomyces cerevisiae enzyme, pNPG substrate, read-out: α-Glucosidase assay IC50 (Mean ± SE).

T1 sequence (P53341 whole entry): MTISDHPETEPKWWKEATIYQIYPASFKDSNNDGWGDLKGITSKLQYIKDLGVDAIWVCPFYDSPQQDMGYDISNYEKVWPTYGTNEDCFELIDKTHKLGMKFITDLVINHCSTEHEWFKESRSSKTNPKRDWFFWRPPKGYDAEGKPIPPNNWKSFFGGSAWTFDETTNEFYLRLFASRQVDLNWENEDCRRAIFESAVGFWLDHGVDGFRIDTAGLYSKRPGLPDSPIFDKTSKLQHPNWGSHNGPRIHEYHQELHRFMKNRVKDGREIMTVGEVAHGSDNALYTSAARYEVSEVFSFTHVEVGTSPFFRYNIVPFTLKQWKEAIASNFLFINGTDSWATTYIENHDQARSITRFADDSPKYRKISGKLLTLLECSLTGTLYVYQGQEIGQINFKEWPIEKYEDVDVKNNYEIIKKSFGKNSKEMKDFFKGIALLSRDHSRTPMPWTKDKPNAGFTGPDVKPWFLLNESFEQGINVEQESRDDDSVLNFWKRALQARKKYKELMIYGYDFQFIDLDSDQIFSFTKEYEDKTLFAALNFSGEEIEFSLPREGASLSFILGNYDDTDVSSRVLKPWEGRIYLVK

As for `C[C@@H]1O[C@@H](OC[C@H]2O[C@@H](Oc3c(-c4ccc(O)c(O)c4)oc4cc(O)cc(O)c4c3=O)[C@H](O)[C@@H](O)[C@@H]2O)[C@H](O)[C@H](O)[C@H]1O` [Compound 4, rutin], the IC50 – broadly, the midpoint of a concentration-inhibition curve – in assay [1] was found to be 754 µM; in assay [2], 303 µM; in assay [3] it was 493 µM; in assay [4], 19 µM. The FRAP in assay [5] was 2.658±0.168 mM AAE/mg and 2.66 mM AAE/mg.
Regarding `O=C(O)[C@H]1O[C@@H](Oc2c(-c3ccc(O)c(O)c3)oc3cc(O)cc(O)c3c2=O)[C@H](O)[C@@H](O)[C@H]1O` [Compound 3, quercetin-3-O-β-D-galacturonic acid], the half-maximal inhibitory concentration (IC50) in assay [1] (setting [6]) was 385 µM; in assay [2], over 1200 µM; in assay [3] it was over 1200 µM; in assay [4] it was 123 µM. Moreover, in assay [5], the FRAP was 0.494±0.066 mM AAE/mg and 0.49 mM AAE/mg.
As to `O=c1cc(-c2ccc(O)cc2)oc2cc(O[C@@H]3O[C@H](CO)[C@@H](O)[C@H](O)[C@H]3O)cc(O)c12` [Compound 1, apeginin-7-O-β-D-glucoside], the IC50 in assay [1] is 408 µM; in assay [2], 474 µM; in assay [3], 668 µM; in assay [4], 366 µM. Besides, the FRAP in assay [5] is 0.225±0.003 mM AAE/mg and 0.23 mM AAE/mg.
`O=C(OC[C@H]1O[C@H](OC(=O)c2cc(O)c(O)c(O)c2)[C@H](O)[C@@H](OC(=O)c2cc(O)c(O)c(O)c2)[C@@H]1O)c1cc(O)c(O)c(O)c1` (stereo in doubt) [Compound 5, 1,3,6-trigalloyl glucose]: the half-maximal inhibitory concentration (IC50) in assay [1] (setting [6]) turned out to be 4.5 µM; in assay [2], 226 µM; in assay [3], 657 µM; in assay [4], 4 µM. The FRAP in assay [5] was 7.228±0.279 mM AAE/mg and 7.23 mM AAE/mg.
As to `O=C(O)[C@H]1O[C@@H](Oc2c(-c3ccc(O)c(O)c3)oc3cc(O)cc(O)c3c2=O)[C@H](O)[C@@H](O)[C@@H]1O` [Compound 2, quercetin-3-O-β-D-glucuronic acid], the half-inhibitory concentration (IC50) in assay [1] (setting [6]) came to 545 µM; in assay [2], 1140 µM; in assay [3], 1880 µM; in assay [4], 29 µM. Besides, the FRAP in assay [5] is 0.727±0.021 mM AAE/mg and 0.73 mM AAE/mg.

For the origin of these results see publication PMC9139161, “Phenolics from Chrozophora oblongifolia Aerial Parts as Inhibitors of α-Glucosidases and Advanced Glycation End Products: In-Vitro Assessment, Molecular Docking and Dynamics Studies” (Biology, 2022).
